Where a name gives a salt, the structure may show the parent alone.
Key:
BACE2 [1] = target: T1, BACE2 (Rattus norvegicus, UniProt Q6IE75); test: Assay for BACE inhibition by measuring cellular TMEM27 cleavage; format: cell-based; conditions: INS-TMEM27 (INS1e-derived) cells, ELISA of shed human TMEM27 in supernatant;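 further: inhibitor added 2 h before doxycycline-induced hTMEM27 expression, supernatant collected after further 46 h, endogenous BACE2 activity read as reduced TMEM27 shedding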
T1 construct: endogenous cellular BACE2 in the Ins1e rat cell line; endogenous in cells; host or cells: INS-TMEM27 (INS1e-derived rat cell line with doxycycline-inducible full-length hTMEM27)
T1 sequence (Q6IE75 63-514): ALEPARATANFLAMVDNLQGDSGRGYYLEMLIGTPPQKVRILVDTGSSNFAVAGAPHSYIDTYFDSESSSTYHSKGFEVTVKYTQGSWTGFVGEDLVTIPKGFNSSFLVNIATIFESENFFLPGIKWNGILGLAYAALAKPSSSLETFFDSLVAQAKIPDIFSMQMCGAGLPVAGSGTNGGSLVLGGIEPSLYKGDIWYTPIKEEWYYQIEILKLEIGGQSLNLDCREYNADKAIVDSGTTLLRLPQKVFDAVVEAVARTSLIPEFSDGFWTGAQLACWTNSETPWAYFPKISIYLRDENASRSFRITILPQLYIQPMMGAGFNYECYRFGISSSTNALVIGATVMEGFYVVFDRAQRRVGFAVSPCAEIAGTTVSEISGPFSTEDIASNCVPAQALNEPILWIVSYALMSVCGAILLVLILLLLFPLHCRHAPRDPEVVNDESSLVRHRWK

BACE1 [2] = target: T2, BACE1 (Homo sapiens, UniProt P56817); test: Cellular Abeta-lowering assay; format: cell-based; set-up: endogenous in cells; host or cells: HEK293 stably transfected with human APP695 wt; conditions: HEK293 cells stably transfected with human APP wt (APP695), Aβ40 ELISA of supernatant after 18-20 hrs
BACE2 [3] = target: T3, BACE2 (Homo sapiens, UniProt Q9Y5Z0); test: Assay A: binding studies using SPR based methods, immobilised BACE2; conditions: CM5 chip, immobilised BACE2 enzyme ectodomain, acetate buffer pH 4.6, 4% DMSO
T3 construct: BACE2 enzyme ectodomain (derived from plasmid “pET17b-T7-hu proBACE2”); T7 (N); made in house
T3 sequence (Q9Y5Z0 63-473 limits assumed): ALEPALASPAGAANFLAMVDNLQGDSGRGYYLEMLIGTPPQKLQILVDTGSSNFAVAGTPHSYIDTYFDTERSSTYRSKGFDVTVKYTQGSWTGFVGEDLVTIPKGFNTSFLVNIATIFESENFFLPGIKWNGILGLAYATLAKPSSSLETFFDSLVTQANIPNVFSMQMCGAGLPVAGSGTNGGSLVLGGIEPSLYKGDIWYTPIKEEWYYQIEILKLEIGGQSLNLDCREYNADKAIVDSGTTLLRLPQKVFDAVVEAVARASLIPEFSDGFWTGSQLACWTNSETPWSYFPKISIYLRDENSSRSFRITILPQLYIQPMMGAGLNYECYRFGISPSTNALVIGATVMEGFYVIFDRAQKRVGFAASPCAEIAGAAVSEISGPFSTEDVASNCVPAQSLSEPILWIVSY

BACE1 [4] = target: T2, BACE1; test: Assay A: binding studies using SPR based methods, immobilised BACE1; set-up: 6his-tagged full length BACE 1 expressed in SF9 cells; 6His; made in house; host or cells: SF9 insect cells; conditions: CM5 chip, immobilised 6his-tagged full length BACE 1, acetate buffer pH 4.6, 4% DMSO;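 further: KD from a 1:1 kinetic fit (koff/kon) of real-time association and dissociation curves, or for fast binders from end-of-association equilibrium responses plotted against log concentration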

T2 sequence (P56817 46-501): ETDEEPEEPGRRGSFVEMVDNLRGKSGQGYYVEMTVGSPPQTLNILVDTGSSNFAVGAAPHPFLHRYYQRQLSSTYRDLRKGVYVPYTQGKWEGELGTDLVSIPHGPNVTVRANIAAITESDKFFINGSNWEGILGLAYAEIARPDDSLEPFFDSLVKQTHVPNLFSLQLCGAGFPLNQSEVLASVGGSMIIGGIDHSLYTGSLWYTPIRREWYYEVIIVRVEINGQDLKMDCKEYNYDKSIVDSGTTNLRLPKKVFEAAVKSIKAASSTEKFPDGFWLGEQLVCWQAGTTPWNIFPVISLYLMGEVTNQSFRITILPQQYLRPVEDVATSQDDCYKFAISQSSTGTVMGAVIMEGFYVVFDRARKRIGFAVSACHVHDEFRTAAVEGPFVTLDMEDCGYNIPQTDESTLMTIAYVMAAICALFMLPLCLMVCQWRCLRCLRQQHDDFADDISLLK

| Structure (SMILES) | IC50 (BACE2 [1]) [nM] | IC50 (BACE1 [2]) [nM] | Kd (BACE2 [3]) [nM] | Kd (BACE1 [4]) [nM] |
| --- | --- | --- | --- | --- |
| CC1(C)OCC(N)=N[C@]1(C)c1cc(NC(=O)c2ccc(Cl)cn2)ccc1F [Example 49, 5-chloro-pyridine-2-carboxylic acid [3-((R)-5-amino-2,2,3-trimethyl-3,6-dihydro-2H-[1,4]oxazin-3-yl)-4-fluoro-phenyl]-amide] | 66 | 4 | 22 | 15 |
| CC1(c2cccc(NC(=O)c3cccc(Cl)c3)c2)COCC(N)=N1 (racemic) [Example 6, (RS)—N-[3-(5-amino-3-methyl-3,6-dihydro-2H-[1,4]oxazin-3-yl)-phenyl]-3-chloro-benzamide] | 660 | 1530 | 230 | 6900 |
| CCC(=O)Nc1ccc(F)c([C@]2(C)COCC(N)=N2)c1 [Example 94, N-[3-((R)-5-amino-3-methyl-3,6-dihydro-2H-[1,4]oxazin-3-yl)-4-fluoro-phenyl]-propionamide formate] | 1080 | 1400 | 1950 | 2700 |
| CC(C)C(=O)Nc1ccc(F)c([C@]2(C)COCC(N)=N2)c1 [Example 88, N-[3-((R)-5-amino-3-methyl-3,6-dihydro-2H-[1,4]oxazin-3-yl)-4-fluoro-phenyl]-isobutyramide formate] | 560 | 2760 | 3450 | > 10000 |
| CC1(c2cccc(NC(=O)c3ccc(Cl)cc3Cl)c2)COCC(N)=N1 (racemic) [Example 4, (RS)—N-[3-(5-amino-3-methyl-3,6-dihydro-2H-[1,4]oxazin-3-yl)-phenyl]-2,4-dichloro-benzamide] | 950 | 570 | 381 | 1720 |
| C[C@@]1(c2cc(NC(=O)c3ncc(C(F)(F)F)cc3Cl)ccc2F)COCC(N)=N1 [Example 38, 3-chloro-5-trifluoromethyl-pyridine-2-carboxylic acid [3-((R)-5-amino-3-methyl-3,6-dihydro-2H-[1,4]oxazin-3-yl)-4-fluoro-phenyl]-amide] | 44 | 21 | 32 | 39 |
| C[C@@]1(c2cc(NC(=O)c3ccc(Cl)cn3)ccc2F)CO[C@H](Cc2ccccc2)C(N)=N1 [Example 28, 5-Chloro-pyridine-2-carboxylic acid [3-((3R,6R)— and (3S,6)-5-amino-6-benzyl-3-methyl-3,6-dihydro-2H-[1,4]oxazin-3-yl)-4-fluoro-phenyl]-amide] | 58 | 19 | 11 | 71 |
| Cn1cc(Cl)c(C(=O)Nc2ccc(F)c([C@]3(C)COCC(N)=N3)c2)n1 [Example 43, 4-chloro-1-methyl-1H-pyrazole-3-carboxylic acid [3-((R)-5-amino-3-methyl-3,6-dihydro-2H-[1,4]oxazin-3-yl)-4-fluoro-phenyl]-amide] | 13 | 79 | 5 | 85 |
| C[C@@]1(c2cc(NC(=O)c3ncccc3F)ccc2F)COCC(N)=N1 [Example 37, 3-fluoro-pyridine-2-carboxylic acid [3-((R)-5-amino-3-methyl-3,6-dihydro-2H-[1,4]oxazin-3-yl)-4-fluoro-phenyl]-amide] | 17 | 240 | 20 | 283 |
| C[C@@]1(c2cc(NC(=O)C(F)(F)C(F)F)ccc2F)COCC(N)=N1 [Example 83, N-[3-((R)-5-amino-3-methyl-3,6-dihydro-2H-[1,4]oxazin-3-yl)-4-fluoro-phenyl]-2,2,3,3-tetrafluoro-propionamide formate] | 130 | 300 | 276 | 916 |
| CC(=O)Nc1ccc(F)c([C@]2(C)COCC(N)=N2)c1 [Example 93, N-[3-((R)-5-amino-3-methyl-3,6-dihydro-2H-[1,4]oxazin-3-yl)-4-fluoro-phenyl]-acetamide formate] | 3390 | 6820 | 3850 | > 10000 |
| C[C@@]1(c2cc(NC(=O)c3ccn(C(F)F)n3)ccc2F)COCC(N)=N1 [Example 40, 1-difluoromethyl-1H-pyrazole-3-carboxylic acid [3-((R)-5-amino-3-methyl-3,6-dihydro-2H-[1,4]oxazin-3-yl)-4-fluoro-phenyl]-amide] | 2 | 13 | 2 | 15 |
| C[C@@]1(c2cc(NC(=O)C(F)C(F)(F)F)ccc2F)COCC(N)=N1 (mixture of isomers) [Example 89, formate] | 820 | 500 |  | 805 |
| Cc1nc(C(F)(F)F)c(C(=O)Nc2ccc(F)c([C@]3(C)COCC(N)=N3)c2)s1 [Example 47, 2-methyl-4-trifluoromethyl-thiazole-5-carboxylic acid [3-((R)-5-amino-3-methyl-3,6-dihydro-2H-[1,4]oxazin-3-yl)-4-fluoro-phenyl]-amide] | 730 | 800 |  |  |

The remaining lines, values ahead:

| IC50 (BACE2 [1]) [nM] | IC50 (BACE1 [2]) [nM] | Kd (BACE2 [3]) [nM] | Kd (BACE1 [4]) [nM] | Structure (SMILES) |
| --- | --- | --- | --- | --- |
| 3 | 17 | 8 | 46 | C[C@@]1(c2cc(NC(=O)c3ccc(F)cn3)ccc2F)COCC(N)=N1 [Example 99, 5-fluoro-pyridine-2-carboxylic acid [3-((R)-5-amino-3-methyl-3,6-dihydro-2H-[1,4]oxazin-3-yl)-4-fluoro-phenyl]-amide] |
| 4 | 26 | 6 | 54 | C[C@@]1(c2cc(NC(=O)c3ncc(F)cc3F)ccc2F)COCC(N)=N1 [Example 41, 3,5-difluoro-pyridine-2-carboxylic acid [3-((R)-5-amino-3-methyl-3,6-dihydro-2H-[1,4]oxazin-3-yl)-4-fluoro-phenyl]-amide] |
| 120 | 550 | 955 | 2260 | C[C@@]1(c2cc(NC(=O)c3coc(C(F)(F)F)c3)ccc2F)COCC(N)=N1 [Example 36, 5-trifluoromethyl-furan-3-carboxylic acid [3-((R)-5-amino-3-methyl-3,6-dihydro-2H-[1,4]oxazin-3-yl)-4-fluoro-phenyl]-amide] |
| 48 | 16 | 9 | 50 | CC1(c2cccc(NC(=O)c3ncc(Cl)cc3Cl)c2)COCC(N)=N1 (racemic) [Example 2, (RS)-3,5-dichloro-pyridine-2-carboxylic acid [3-(5-amino-3-methyl-3,6-dihydro-2H-[1,4]oxazin-3-yl)-phenyl]-amide] |
| > 10000 | 110 | 2150 | 261 | CC1(c2cc(NC(=O)c3cc(-c4ccco4)on3)ccc2F)COCC(N)=N1 (racemic) [Example 75, 5-Furan-2-yl-isoxazole-3-carboxylic acid [3-((RS)-5-amino-3-methyl-3,6-dihydro-2H-[1,4]oxazin-3-yl)-4-fluoro-phenyl]-amide] |
| 837 | 130 | 98 | 394 | CC1(c2cc(NC(=O)c3ccc(Cl)cc3)ccc2F)COCC(N)=N1 (racemic) [Example 19, (RS)—N-[3-(5-amino-3-methyl-3,6-dihydro-2H-[1,4]oxazin-3-yl)-4-fluoro-phenyl]-4-chloro-benzamide] |
| 720 | 1350 | 629 | 10800 | C[C@@]1(c2cc(NC(=O)c3sccc3Cl)ccc2F)COCC(N)=N1 [Example 46, 3-chloro-thiophene-2-carboxylic acid [3-((R)-5-amino-3-methyl-3,6-dihydro-2H-[1,4]oxazin-3-yl)-4-fluoro-phenyl]-amide] |
| 5 | 14 | 2 | 22 | CC1(C)OC[C@@](C)(c2cccc(NC(=O)c3ccc(Cl)cn3)c2)N=C1N [Example 51, 5-chloro-pyridine-2-carboxylic acid [3-((R)-5-amino-3,6,6-trimethyl-3,6-dihydro-2H-[1,4]oxazin-3-yl)-phenyl]-amide] |

— patent US20130196984A1, “3-AMINO-5-PHENYL-56-DIHYDRO-2H-[1,4]OXAZINES” (Siena Biotech S.p.A., priority 2009, published 2013)
